17 compounds from ChEMBL document CHEMBL5233274, “Current Landscape and Future Perspective of Oxazolidinone Scaffolds Containing Antibacterial Drugs” (J Med Chem, 2021) can be followed below.

Converted amounts (≈) assume the structure as drawn.

Type in all cases: functional
For experiment [1], the system named is Staphylococcus aureus. Put plainly: Antibacterial activity against methicillin-resistant Staphylococcus aureus assessed as inhibition of bacterial growth incubated for 18 to 24 hrs by CLSI protocol based Tryptic soy broth method. Conditions: time 18-24 hrs.
In experiment [2] the test system is Enterococcus faecalis. Put plainly: Antibacterial activity against Enterococcus faecalis ATCC 29212 assessed as inhibition of bacterial growth incubated for 18 to 24 hrs by CLSI protocol based Tryptic soy broth method. The settings on record: time 18-24 hrs.
The test system of experiment [3] is Staphylococcus epidermidis. In words: Antibacterial activity against Staphylococcus epidermidis ATCC 12228 assessed as inhibition of bacterial growth incubated for 18 to 24 hrs by CLSI protocol based Tryptic soy broth method. Conditions: time 18-24 hrs.
Experiment [4] deals with Staphylococcus aureus. In words: Antibacterial activity against Staphylococcus aureus ATCC 25923 assessed as inhibition of bacterial growth incubated for 18 to 24 hrs by CLSI protocol based Tryptic soy broth method. Conditions: time 18-24 hrs.
Experiment [5] has as its system Escherichia coli. In words: Antibacterial activity against Escherichia coli assessed as inhibition of bacterial growth measured per 100 uL incubated for 24 hrs by agar well diffusion method.
The subject of experiment [6] is Candida albicans. In words: Antifungal activity against Candida albicans assessed as inhibition of fungal growth incubated measured per 100 uL incubated for 24 hrs by agar well diffusion method. A general note: In agar diffusion tests the substance spreads into inoculated agar from a disc or well.
Experiment [7] relates to Enterococcus. In words: Antibacterial activity against vancomycin-resistant Enterococcus assessed as inhibition of bacterial growth by CLSI protocol based method.
For experiment [8], the system named is Staphylococcus aureus. Put plainly: Antibacterial activity against Staphylococcus aureus ATCC 29213 assessed as inhibition of bacterial growth by CLSI protocol based method.
Experiment [9] concerns Staphylococcus aureus. In words: Antibacterial activity against methicillin-resistant Staphylococcus aureus assessed as inhibition of bacterial growth by CLSI protocol based method.
The subject of experiment [10] is Bacillus subtilis. In words: Antibacterial activity against Bacillus subtilis NCIM 2097 assessed as inhibition of bacterial growth incubated for 24 hrs by serial broth dilution method. For orientation: Broth dilution looks for growth in wells or tubes with falling amounts of substance.
Experiment [11] concerns Staphylococcus aureus. In words: Antibacterial activity against Staphylococcus aureus NCIM 5257 assessed as inhibition of bacterial growth incubated for 24 hrs by serial broth dilution method.
For experiment [12], the system named is Pseudomonas aeruginosa. In words: Antibacterial activity against Pseudomonas aeruginosa NCIM 5210 assessed as inhibition of bacterial growth incubated for 24 hrs by serial dilution method.
Experiment [13] deals with Enterococcus faecalis. Put plainly: Antibacterial activity against Streptococcus faecalis NCIM 2080 assessed as inhibition of bacterial growth incubated for 24 hrs by serial dilution method.
Experiment [14] concerns Escherichia coli. In words: Antibacterial activity against Escherichia coli NCIM 2065 assessed as inhibition of bacterial growth incubated for 24 hrs by serial dilution method.
The test system of experiment [15] is Klebsiella pneumoniae. Put plainly: Antibacterial activity against Klebsiella pneumoniae NCIM 5289 assessed as inhibition of bacterial growth incubated for 24 hrs by serial dilution method.

For the compound `CCCCc1cn(C[C@H]2CN(c3ccc(OCc4nc(C)c(C)nc4C)c(F)c3)C(=O)O2)nn1`, the MIC in experiment [1], in experiment [2], in [3] and in [4] was greater than 128 µg/mL throughout.

Take `C[C@@H]1[C@H](O)[C@@H](C)/C=C/C=C/C=C/C=C/C=C/C=C/C=C/[C@H](O[C@@H]2O[C@H](C)[C@@H](O)[C@H](N)[C@@H]2O)C[C@@H]2O[C@](O)(C[C@@H](O)C[C@@H](O)[C@H](O)CC[C@@H](O)C[C@@H](O)CC(=O)O[C@H]1C)C[C@H](O)[C@H]2C(=O)O` [AMPHOTERICIN B]: the MIC in [5] and in experiment [6] was 6.25 µg each time.

Consider `Cc1nc(C)c(COc2ccc(N3C[C@H](CNC(=O)C(Cl)Cl)OC3=O)cc2)nc1C`, for which the MIC came out at 4 µg/mL (≈ 8.82 µM) in [1], 16 µg/mL (≈ 35.3 µM) in experiment [2], 8 µg/mL (≈ 17.6 µM) in experiment [3] and 8 µg/mL (≈ 17.6 µM) in experiment [4].

Consider `CC(=O)NC[C@H]1CN(c2ccc(N3CCN(/N=C/Cn4c([N+](=O)[O-])cnc4C)CC3)c(F)c2)C(=O)O1`, for which the MIC in experiment [7] was 4 µg/mL (≈ 7.96 µM); in experiment [8], 1 µg/mL (≈ 1.99 µM); in experiment [9] it was 1 µg/mL (≈ 1.99 µM).

For `CC(=O)NC[C@H]1CN(c2ccc(N3CCOCC3)c(F)c2)C(=O)O1` [LINEZOLID], in experiment [7], the MIC is 2 µg/mL (≈ 5.93 µM).

With `O=C(/C=C/c1ccc(Cl)cc1)c1ccc(-c2ccc(N3C[C@H](CO)OC3=O)cc2)cc1`, the MIC in experiment [10], in experiment [11], in [12], in [13], in experiment [14] and in experiment [15] was 3.12 µg/mL (≈ 7.2 µM) in each case.

On to `Cc1nc(C)c(COc2ccc(N3C[C@H](Cn4ccnn4)OC3=O)cc2F)nc1C`, for which the MIC in [1] came out at 4 µg/mL (≈ 9.7 µM); in [2] it was 32 µg/mL (≈ 77.6 µM); in experiment [3], 8 µg/mL (≈ 19.4 µM); in experiment [4], 8 µg/mL (≈ 19.4 µM).

For the compound `CC(=O)NC[C@H]1CN(c2ccc(N3CCN(/N=C/c4ccc([N+](=O)[O-])s4)CC3)c(F)c2)C(=O)O1`, the MIC is 2 µg/mL (≈ 4.08 µM) in experiment [7], 0.25 µg/mL (≈ 0.51 µM) in experiment [8] and 1 µg/mL (≈ 2.04 µM) in experiment [9].

On to `CC(=O)NC[C@H]1CN(c2ccc(N3CCN(/N=C/c4ncc(N)n4C)CC3)c(F)c2)C(=O)O1`, for which the MIC in experiment [7], in experiment [8] and in experiment [9] was greater than 8 µg/mL each time.

With `CC(=O)NC[C@H]1CN(c2ccc(N3CCN(/N=C/c4ccc([N+](=O)[O-])cc4)CC3)c(F)c2)C(=O)O1`, the MIC in experiment [7], in experiment [8] and in experiment [9] was 4 µg/mL (≈ 8.26 µM) each time.

In the case of `COCC(=O)NC[C@H]1CN(c2ccc(OCc3nc(C)c(C)nc3C)c(F)c2)C(=O)O1`, the MIC in experiment [1] was 32 µg/mL (≈ 74 µM); in [2], 128 µg/mL (≈ 296 µM); in [3], 32 µg/mL (≈ 74 µM); in [4], 128 µg/mL (≈ 296 µM).

`Cc1nc(C)c(COc2ccc(N3C[C@H](CNC(=O)CCl)OC3=O)cc2F)nc1C`: the MIC in experiment [1] was 2 µg/mL (≈ 4.58 µM); in experiment [2], 8 µg/mL (≈ 18.3 µM); in experiment [3], 4 µg/mL (≈ 9.16 µM); in experiment [4], 8 µg/mL (≈ 18.3 µM).

With `CC(=O)NC[C@H]1CN(c2ccc(N3CCN(Cc4ccc([N+](=O)[O-])o4)CC3)c(F)c2)C(=O)O1` [RANBEZOLID], the MIC in experiment [7] worked out at 2 µg/mL (≈ 4.33 µM); in [8] it was 1 µg/mL (≈ 2.17 µM); in [9] it was 2 µg/mL (≈ 4.33 µM).

For `CC(=O)NC[C@H]1CN(c2ccc(N3CCN(/N=C(\C)Cn4c([N+](=O)[O-])cnc4C)CC3)c(F)c2)C(=O)O1`, the MIC in experiment [7] came out at 4 µg/mL (≈ 7.74 µM); in experiment [8], 1 µg/mL (≈ 1.94 µM); in [9] it was 1 µg/mL (≈ 1.94 µM).

On to `CC(=O)NC[C@H]1CN(c2ccc(N3CCN(/N=C/c4cccc([N+](=O)[O-])c4)CC3)c(F)c2)C(=O)O1`, for which the MIC was 2 µg/mL (≈ 4.13 µM) in [7], 2 µg/mL (≈ 4.13 µM) in [8] and 1 µg/mL (≈ 2.06 µM) in experiment [9].

For `COc1ccc(/C=C/C(=O)c2ccc(-c3ccc(N4C[C@H](CO)OC4=O)cc3)cc2)cc1`, the MIC in experiment [10], in experiment [11], in experiment [12], in experiment [13], in experiment [14] and in [15] was 3.12 µg/mL (≈ 7.28 µM) throughout.

In the case of `CC(=O)NC[C@H]1CN(c2ccc(N3CCN(/N=C/c4c(Cl)cccc4[N+](=O)[O-])CC3)c(F)c2)C(=O)O1`, the MIC in experiment [7], in experiment [8] and in experiment [9] was 8 µg/mL (≈ 15.4 µM) in each case.
